Measured values from ChEMBL document CHEMBL4811312, “SAR towards indoline and 3-azaindoline classes of IDO1 inhibitors” (Bioorg Med Chem Lett, 2021).
Values belong to the molecule of their own block, whether it stands above or below them.

Legend:
[1] = target: T1, Indoleamine 2,3-dioxygenase 1 (Homo sapiens, UniProt P14902); assay: Inhibition of human IDO1 in human Hela cells; format: cell-based
Target sequence in this assay (P14902 whole entry): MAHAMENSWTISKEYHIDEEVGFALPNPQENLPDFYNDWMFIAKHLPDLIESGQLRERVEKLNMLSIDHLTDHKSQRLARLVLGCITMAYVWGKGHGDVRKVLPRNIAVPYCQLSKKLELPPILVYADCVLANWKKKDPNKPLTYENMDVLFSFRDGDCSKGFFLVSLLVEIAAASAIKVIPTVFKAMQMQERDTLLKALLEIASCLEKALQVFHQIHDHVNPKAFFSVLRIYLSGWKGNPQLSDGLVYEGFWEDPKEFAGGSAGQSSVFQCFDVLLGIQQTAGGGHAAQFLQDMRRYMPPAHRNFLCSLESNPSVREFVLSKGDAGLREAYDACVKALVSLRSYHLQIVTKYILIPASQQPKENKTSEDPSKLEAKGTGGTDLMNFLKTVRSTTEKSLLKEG

[2] = target: T1, Indoleamine 2,3-dioxygenase 1; assay: Inhibition of human IDO1 assessed as unbound compound concentration by human whole blood assay; format: tissue-based
Target sequence in this assay (P14902 whole entry): as above

[3] = target: T1, Indoleamine 2,3-dioxygenase 1; assay: Inhibition of human IDO1 in HEK293 cells at 10 uM relative to control; format: cell-based
Target sequence in this assay (P14902 whole entry, looked up): as the sequence (P14902 whole entry) above

[4] = Unbound clearance in Wistar Han rats at 0.05 mg/kg, iv; format: ADME, organism-based; conditions: rat, in vivo
[5] = Mean residence time in Wistar Han rat at 0.5 mg/kg, iv; format: ADME, organism-based; conditions: in vivo
[6] = Clearance in Wistar Han rats at 0.05 mg/kg, iv; format: ADME, organism-based; conditions: rat, in vivo
[7] = target: T1, Indoleamine 2,3-dioxygenase 1; assay: Inhibition of human IDO1 in human Hela cells at 10 uM relative to control; format: cell-based
Target sequence in this assay (P14902 whole entry, looked up): as the sequence (P14902 whole entry) above

[8] = target: T1, Indoleamine 2,3-dioxygenase 1; assay: Inhibition of human IDO1 by human whole blood assay; format: tissue-based
Target sequence in this assay (P14902 whole entry): as above

[9] = Unbound clearance in Beagle dog at 0.05 mg/kg, iv; format: ADME, organism-based, Canis lupus familiaris; conditions: in vivo
[10] = Mean residence time in Beagle dog at 0.5 mg/kg, iv; format: ADME, organism-based, Canis lupus familiaris; conditions: in vivo
[11] = Clearance in Beagle dog at 0.05 mg/kg, iv; format: ADME, organism-based, Canis lupus familiaris; conditions: in vivo

Compound: CC(C)CC(=O)N1CCc2cc(CNC(=O)c3cccs3)ccc21
inhibition [3]: 100%

Compound: CCC(=O)N1CCc2cc(CNC(=O)c3ccccc3)ccc21
inhibition [3]: 87%

Compound: CCC(=O)N1CCc2cc(CNC(=O)c3cccc(F)c3)ccc21
inhibition [3]: 82%

Compound: CCC(=O)N1CCc2cc(CNC(=O)c3ccc(F)cc3)ccc21
inhibition [3]: 96%

Compound: CC(C)C(=O)N1CCc2cc(CNC(=O)c3cccs3)ccc21
inhibition [3]: 100%

Compound: CCCC(=O)NCc1ccc2c(c1)CCN2C(=O)CC(C)C
inhibition [3]: 64%

Compound: CCC(=O)N1CCc2cc(CNC(=O)c3cccc(Cl)c3)ccc21
inhibition [3]: 77%

Compound: COCC(=O)NCc1ccc2c(c1)CCN2C(=O)CC(C)C
inhibition [3]: 20%

Compound: CC(=O)N1CCc2cc(CNC(=O)c3cccs3)ccc21
inhibition [3]: 72%

Compound: CCC(=O)N1CCc2cc(CNC(=O)c3cccs3)ccc21
inhibition [3]: 89%

Compound: CC(C)CC(=O)N1CCc2cc(CNC(=O)c3ccco3)ccc21
inhibition [3]: 100%

Compound: CC(C)C(=O)N1CCc2cc(CNC(=O)c3ccco3)ccc21
inhibition [7]: 92%
IC50 [1]: 92 nM

Compound: CC(C)C(=O)N1CCc2cc(CNC(=O)c3ccc(F)cc3)ccc21
inhibition [3]: 88%

Compound: COC(=O)N1c2ccc(C3(NC(=O)c4ccc(F)cc4)CC3)cc2[C@@H]2CC[C@@H]21
CL free [4]: 2899 mL/min/kg
MRT [5]: 0.8 h
clearance [6]: 29 mL/min/kg
IC50 [1]: 5.6 nM

Compound: CC(C)C(=O)N1CCc2cc(CNC(=O)c3ccccc3)ccc21
inhibition [3]: 100%

Compound: CCC(=O)N1CCc2cc(CNC(=O)c3ccnn3C)ccc21
inhibition [3]: 14%

Compound: CC(C)NC(=O)NCc1ccc2c(c1)CCN2C(=O)c1ccccc1
inhibition [3]: 45%

Compound: CC(C)CC(=O)N1CCc2cc(CNC(=O)c3cccnc3)ccc21
inhibition [3]: 86%

Compound: CCC(=O)NCc1ccc2c(c1)CCN2C(=O)c1ccccc1
inhibition [3]: 41%

Compound: CC(C)CC(=O)N1CCc2cc(CNC(=O)C3CC3)ccc21
inhibition [3]: 35%

Second part, the molecule after the results:

IC50 [1]: 127 nM
Compound: O=C(Nc1ccc(F)cc1)C1(c2ccc3c(n2)CCN3c2ccnc(C(F)(F)F)n2)CCC1

IC50 [2]: 0.84 nM
Compound: O=C(c1cccc(Cl)c1)N1CCc2nc(C3(C(=O)Nc4ccc(F)cc4)CCC3)ccc21

CL free [4]: 1691 mL/min/kg
MRT [5]: 2.7 h
clearance [6]: 61 mL/min/kg
IC50 [1]: 2.7 nM
Compound: O=C(OC1CC1)N1CCc2nc(C3(C(=O)Nc4ccc(F)cc4)CCC3)ccc21

inhibition [7]: 90%
IC50 [1]: 90 nM
Compound: O=C(NCc1ccc2c(c1)CCN2C(=O)c1cccc(Cl)c1)c1ccc(Cl)cc1

IC50 [1]: 46 nM
Compound: Cc1nccc(N2CCc3nc(C4(NC(=O)c5ccc(Cl)cc5)CCC4)ccc32)n1

CL free [4]: 1176 mL/min/kg
MRT [5]: 3.4 h
clearance [6]: 7.3 mL/min/kg
IC50 [1]: 34 nM
Compound: Cc1nccc(N2CC3(CC3)c3nc(C4(NC(=O)c5ccc(F)cc5)CC4)ccc32)n1

IC50 [1]: 12 nM
Compound: O=C(NC1(c2ccc3c(n2)C2(CC2)CN3C(=O)OC2CC2)CC1)c1ccc(F)cc1

IC50 [1]: 12.5 nM
Compound: Cc1nccc(N2CCc3nc(C4(C(=O)Nc5ccc(Cl)cc5)CCC4)ccc32)n1

IC50 [8]: 240 nM
IC50 [1]: 93 nM
Compound: O=C(NC1(c2ccc3c(n2)CCN3c2ccnc(C(F)(F)F)n2)CCC1)c1ccc(Cl)cc1

IC50 [8]: 90 nM
IC50 [1]: 2 nM
Compound: O=C(OC1CC1)N1CCc2nc(C3(C(=O)Nc4ccc(Cl)cc4)CCC3)ccc21

CL free [4]: 668 mL/min/kg
IC50 [2]: 29 nM
MRT [5]: 1.2 h
clearance [6]: 60 mL/min/kg
IC50 [8]: 330 nM
IC50 [1]: 8 nM
Compound: O=C(C1CC1)N1CCc2nc(C3(C(=O)Nc4ccc(F)cc4)CCC3)ccc21

IC50 [8]: 64 nM
IC50 [1]: 3.8 nM
Compound: Cc1nccc(N2c3ccc(C4(NC(=O)c5ccc(F)cc5)CC4)cc3[C@H]3CC[C@H]32)n1

CL free [4]: 2049 mL/min/kg
IC50 [2]: 0.63 nM
MRT [5]: 3.2 h
clearance [6]: 20 mL/min/kg
IC50 [8]: 63 nM
IC50 [1]: 4.5 nM
Compound: O=C(NC1(c2ccc3c(n2)CCN3C(=O)OC2CC2)CCC1)c1ccc(Cl)cc1

CL free [4]: 7720 mL/min/kg
IC50 [2]: 0.45 nM
MRT [5]: 1.8 h
clearance [6]: 87 mL/min/kg
IC50 [1]: 1.4 nM
Compound: O=C(OC1CC1)N1CCc2cc(C3(C(=O)Nc4ccc(F)cc4)CCC3)ccc21

CL free [9]: 4800 mL/min/kg
CL free [4]: 174 mL/min/kg
MRT [10]: 4.9 h
IC50 [2]: 11 nM
MRT [5]: 2.9 h
clearance [6]: 4.8 mL/min/kg
clearance [11]: 14 mL/min/kg
IC50 [8]: 390 nM
IC50 [1]: 4.1 nM
Compound: O=C(NC1(c2ccc3c(n2)CCN3C(=O)OC2CC2)CC1)c1ccc(Cl)cc1

IC50 [8]: 430 nM
IC50 [1]: 21 nM
Compound: Cc1nccc(N2CCc3nc(C4(C(=O)Nc5ccc(F)cc5)CCC4)ccc32)n1

CL free [4]: 35929 mL/min/kg
IC50 [2]: 0.34 nM
MRT [5]: 2.2 h
clearance [6]: 53 mL/min/kg
IC50 [8]: 340 nM
IC50 [1]: 2.3 nM
Compound: O=C(Nc1ccc(Cl)cc1)C1(c2ccc3c(n2)CCN3c2ccccn2)CCC1

IC50 [8]: 640 nM
IC50 [1]: 1.6 nM
Compound: O=C(Nc1ccc(Cl)cc1)C1(c2ccc3c(c2)CCN3c2ccccn2)CCC1

IC50 [8]: 66 nM
IC50 [1]: 5 nM
Compound: Cc1nccc(N2c3ccc(C4(NC(=O)c5ccc(F)cc5)CC4)cc3[C@@H]3CC[C@@H]32)n1

IC50 [1]: 3.1 nM
Compound: O=C(Nc1ccc(F)cc1)C1(c2ccc3c(c2)CCN3c2ccccn2)CCC1

CL free [4]: 2318 mL/min/kg
IC50 [2]: 4.1 nM
MRT [5]: 1 h
clearance [6]: 32 mL/min/kg
IC50 [8]: 300 nM
IC50 [1]: 2.8 nM
Compound: COC(=O)N1c2ccc(C3(NC(=O)c4ccc(F)cc4)CC3)cc2[C@H]2CC[C@H]21

IC50 [1]: 6.9 nM
Compound: COCCOC(=O)N1CCc2nc(C3(NC(=O)c4ccc(Cl)cc4)CCC3)ccc21

IC50 [8]: 430 nM
IC50 [1]: 5.2 nM
Compound: Cc1nccc(N2CCc3cc(C4(C(=O)Nc5ccc(F)cc5)CCC4)ccc32)n1

MRT [5]: 3.6 h
clearance [6]: 3.3 mL/min/kg
IC50 [8]: 180 nM
IC50 [1]: 2.9 nM
Compound: Cc1nccc(N2c3ccc(C4(NC(=O)c5ccc(F)cc5)CC4)cc3[C@H]3C[C@H]32)n1

inhibition [3]: 92%
Compound: CC(C)C(=O)N1CCc2cc(CNC(=O)c3ccc(Cl)cc3)ccc21

IC50 [1]: 8.2 nM
Compound: Cc1nccc(N2c3ccc(C4(NC(=O)c5ccc(F)cc5)CC4)cc3[C@@H]3C[C@@H]32)n1
